Experiment: Dynamic vapour sorption (DVS) of selected salts (Example 8)
Assay type: physicochemical
Protocol: DVS: The moisture sorption properties of the feed API were analyzed by DVS Intrinsic instrument (Surface Measurement System). Approximately 20-50 mg of API was weighed on an aluminum pan and loaded into the instrument equilibrated at 25° C. The sample was allowed to equilibrate under dry atmosphere (0% relative humidity) for 60 minutes before increasing the humidity from 0% to 30% at 5% step increment and from 30% to 90% at 10% step increment. A desorption cycle was also applied from 90% to 30% (10% step) and from 30% to 0% (5% decrement). A rate of change in mass per time unit (dm/dt) of 0.002%/min was set as the equilibrium parameter. Kinetic and isotherm graphs were calculated.

## COc1ccc2c3c([nH]c2c1)CCN(C)CC3.O=C(O)c1ccccc1 [Tabernanthalog• Benzoate]
desorption, 0.0% RH
  DVS 0 to 90 to 0% RH (dm/dt <0.002%), mass change: −0.037%
desorption, 5.0% RH
  DVS 0 to 90 to 0% RH (dm/dt <0.002%), mass change: −0.034%
desorption, 10.0% RH
  DVS 0 to 90 to 0% RH (dm/dt <0.002%), mass change: −0.032%
desorption, 15.0% RH
  DVS 0 to 90 to 0% RH (dm/dt <0.002%), mass change: −0.032%
desorption, 20.0% RH
  DVS 0 to 90 to 0% RH (dm/dt <0.002%), mass change: −0.029%
desorption, 25.0% RH
  DVS 0 to 90 to 0% RH (dm/dt <0.002%), mass change: −0.028%
desorption, 30.0% RH
  DVS 0 to 90 to 0% RH (dm/dt <0.002%), mass change: −0.023%
desorption, 40.0% RH
  DVS 0 to 90 to 0% RH (dm/dt <0.002%), mass change: −0.018%
desorption, 50.0% RH
  DVS 0 to 90 to 0% RH (dm/dt <0.002%), mass change: −0.014%
desorption, 60.0% RH
  DVS 0 to 90 to 0% RH (dm/dt <0.002%), mass change: −0.001%
desorption, 70.0% RH
  DVS 0 to 90 to 0% RH (dm/dt <0.002%), mass change: 0.034%
desorption, 80.0% RH
  DVS 0 to 90 to 0% RH (dm/dt <0.002%), mass change: 0.063%
desorption, 90.0% RH
  DVS 0 to 90 to 0% RH (dm/dt <0.002%), mass change: 0.118%
sorption, 0.0% RH
  DVS 0 to 90 to 0% RH (dm/dt <0.002%), mass change: 0.00%
sorption, 5.0% RH
  DVS 0 to 90 to 0% RH (dm/dt <0.002%), mass change: −0.001%
sorption, 10.0% RH
  DVS 0 to 90 to 0% RH (dm/dt <0.002%), mass change: 0.002%
sorption, 15.0% RH
  DVS 0 to 90 to 0% RH (dm/dt <0.002%), mass change: −0.002%
sorption, 20.0% RH
  DVS 0 to 90 to 0% RH (dm/dt <0.002%), mass change: −0.003%
sorption, 25.0% RH
  DVS 0 to 90 to 0% RH (dm/dt <0.002%), mass change: −0.002%
sorption, 30.0% RH
  DVS 0 to 90 to 0% RH (dm/dt <0.002%), mass change: 0.002%
sorption, 40.0% RH
  DVS 0 to 90 to 0% RH (dm/dt <0.002%), mass change: 0.002%
sorption, 50.0% RH
  DVS 0 to 90 to 0% RH (dm/dt <0.002%), mass change: 0.006%
sorption, 60.0% RH
  DVS 0 to 90 to 0% RH (dm/dt <0.002%), mass change: 0.009%
sorption, 70.0% RH
  DVS 0 to 90 to 0% RH (dm/dt <0.002%), mass change: 0.009%
sorption, 80.0% RH
  DVS 0 to 90 to 0% RH (dm/dt <0.002%), mass change: 0.046%
sorption, 90.0% RH
  DVS 0 to 90 to 0% RH (dm/dt <0.002%), mass change: 0.118%

Reference: patent US20230257385A1, “SALT AND SOLID FORMS OF TABERNANTHALOG” (priority 2021, published 2023)
